From US6737383B1, “Herbicidal oxadiazolidines” (priority 1999, dated 2004)

Key:
bedstraw = experiment: Test B pre/postemergence bedstraw; assay type: in vivo, Galium aparine
Procedure, shortened: (§1)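 Herbicidal effect was estimated by eye on a ten-point control scale after plants spent twelve to sixteen days in a greenhouse following soil or foliar treatment. Foliar sprays targeted plants at one to four leaves; all doses were formulated in a non-phytotoxic solvent with surfactant.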

blackgrass = experiment: Test B pre/postemergence blackgrass; assay type: in vivo, Alopecurus myosuroides
Procedure, shortened: as §1

surinam grass = experiment: Test B pre/postemergence surinam grass; assay type: in vivo, Brachiaria decumbens
Procedure, shortened: as §1

corn = experiment: Test B pre/postemergence corn; assay type: in vivo, Zea mays
Procedure, shortened: as §1

giant foxtail = experiment: Test B pre/postemergence giant foxtail; assay type: in vivo, Setaria faberii
Procedure, shortened: as §1

morningglory = experiment: Test B pre/postemergence morningglory; assay type: in vivo, Ipomoea hederacea
Procedure, shortened: as §1

pigweed = experiment: Test B pre/postemergence pigweed; assay type: in vivo, Amaranthus retroflexus
Procedure, shortened: as §1

rape = experiment: Test B pre/postemergence rape; assay type: in vivo, Brassica napus
Procedure, shortened: as §1

soybean = experiment: Test B pre/postemergence soybean; assay type: in vivo, Glycine max
Procedure, shortened: as §1

sugar beet = experiment: Test B pre/postemergence sugar beet; assay type: in vivo, Beta vulgaris; settings: for Plant response rating, Sugarbeets: Rate 250 g/ha
Procedure, shortened: as §1

velvetleaf = experiment: Test B pre/postemergence velvetleaf; assay type: in vivo, Abutilon theophrasti; settings: for Plant response rating, Velvetleaf: Rate 250 g/ha
Procedure, shortened: as §1

purple nutsedge = experiment: Test B pre/postemergence purple nutsedge; assay type: in vivo, Cyperus rotundus
Procedure, shortened: as §1

rice = experiment: Test B flood test rice; assay type: in vivo, Oryza sativa
Procedure, shortened: (§2)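 Each value is a visual injury score relative to controls, with 10 meaning complete control and 0 no effect. Evaluation took place twelve to sixteen days after the 2-leaf-stage plants were treated and kept in the greenhouse.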

smallflower flatsedge = experiment: Test B flood test smallflower flatsedge; assay type: in vivo, Cyperus difformis
Procedure, shortened: as §2

duck salad = experiment: Test B flood test duck salad; assay type: in vivo, Heteranthera limosa
Procedure, shortened: as §2

bamyardgrass = experiment: Test B flood test barnyardgrass; assay type: in vivo, Echinochloa crus-galli
Procedure, shortened: as §2

[1] = Preemergence, Rate 62 g/ha, scale 0 to 10 (0 no effect, 10 complete control)
[2] = Preemergence, Rate 125 g/ha, scale 0 to 10 (0 no effect, 10 complete control)
[3] = Preemergence, Rate 250 g/ha, scale of 0 to 10 where 0 is no effect and 10 is complete control
[4] = Preemergence, Rate 500 g/ha, scale 0 to 10 (0 no effect, 10 complete control)
[5] = Rate 500 g/ha, Postemergence, scale 0 to 10, 0 no effect, 10 complete control
[6] = Postemergence, Rate 125 g/ha, scale of 0 to 10 where 0 is no effect and 10 is complete control
[7] = Postemergence, Rate 250 g/ha, scale 0 to 10, 0 no effect, 10 complete control
[8] = Rate 62 g/ha, Postemergence, scale of 0 to 10 where 0 is no effect and 10 is complete control
[9] = Postemergence, Rate 62 g/ha, scale 0 to 10, 0 is no effect, 10 is complete control
[10] = Rate 250 g/ha, Postemergence, scale 0 to 10, 0 is no effect, 10 is complete control
[11] = Preemergence, Rate 125 g/ha, 0 is no effect, 10 is complete control
[12] = Preemergence, scale of 0 to 10 where 0 is no effect and 10 is complete control
[13] = Postemergence, scale 0 to 10, 0 is no effect, 10 is complete control
[14] = Postemergence (flood test species), Rate 125 g/ha, scale of 0 to 10 where 0 is no effect and 10 is complete control
[15] = Rate 62 g/ha, Postemergence section, flood test species, scale of 0 to 10 where 0 is no effect and 10 is complete control
[16] = Rate 250 g/ha, Postemergence (flood test), scale 0 to 10, 0 is no effect, 10 is complete control
[17] = Rate 500 g/ha, listed under Postemergence (flood test species), scale 0 to 10, 0 no effect, 10 complete control
[18] = flood test, listed under Postemergence, Rate 250 g/ha, scale 0 to 10, 0 no effect, 10 complete control

Cc1nn(C)c(C)c1-n1c(=O)on(C(=O)N(c2ccccc2)C(C)C)c1=O [Compound 120]
Bedstraw plant response rating (bedstraw; [1]): 0 | Plant response rating, Bedstraw (bedstraw; [2]): 0 | Plant response rating, Bedstraw (bedstraw; [3]): 0 | Bedstraw plant response rating (bedstraw; [4]): 0 | Bedstraw plant response rating (bedstraw; [5]): 2 | Blackgrass plant response rating (blackgrass; [6]): 4 | Blackgrass plant response rating (blackgrass; [7]): 6 | Blackgrass plant response rating (blackgrass; [1]): 0 | Plant response rating, Blackgrass (blackgrass; [2]): 3 | Plant response rating, Blackgrass (blackgrass; [3]): 7 | Blackgrass plant response rating (blackgrass; [4]): 8 | Blackgrass plant response rating (blackgrass; [8]): 0 | Blackgrass plant response rating (blackgrass; [5]): 8 | B. signalgrass plant response rating (surinam grass; [9]): 0 | B. signalgrass plant response rating (surinam grass; [7]): 7 | B. signalgrass plant response rating (surinam grass; [1]): 0 | Plant response rating, B. signalgrass (surinam grass; [2]): 3 | Plant response rating, B. signalgrass (surinam grass; [3]): 6 | B. signalgrass plant response rating (surinam grass; [4]): 8 | B. signalgrass plant response rating (surinam grass; Rate 125 g/ha, Postemergence, scale 0 to 10, 0 no effect, 10 complete control): 4 | B. signalgrass plant response rating (surinam grass; Rate 500 g/ha, Postemergence, scale of 0 to 10 where 0 is no effect and 10 is complete control): 8 | Corn plant response rating (corn; [6]): 0 | Corn plant response rating (corn; [7]): 2 | Corn plant response rating (corn; [1]): 0 | Plant response rating, Corn (corn; [2]): 0 | Plant response rating, Corn (corn; [3]): 0 | Corn plant response rating (corn; [4]): 0 | Corn plant response rating (corn; [8]): 0 | Corn plant response rating (corn; [5]): 4 | Giant foxtail plant response rating (giant foxtail; [6]): 6 | Giant foxtail plant response rating (giant foxtail; [7]): 8 | Giant foxtail plant response rating (giant foxtail; [1]): 8 | Plant response rating, Giant foxtail (giant foxtail; [2]): 9 | Plant response rating, Giant foxtail (giant foxtail; [3]): 9 | Giant foxtail plant response rating (giant foxtail; [4]): 10 | Giant foxtail plant response rating (giant foxtail; [8]): 3 | Giant foxtail plant response rating (giant foxtail; [5]): 8 | Morningglory plant response rating (morningglory; [6]): 7 | Morningglory plant response rating (morningglory; [7]): 8 | Morningglory plant response rating (morningglory; [1]): 0 | Plant response rating, Morningglory (morningglory; [2]): 0 | Plant response rating, Morningglory (morningglory; [3]): 0 | Morningglory plant response rating (morningglory; [4]): 0 | Morningglory plant response rating (morningglory; [8]): 4 | Morningglory plant response rating (morningglory; [5]): 8 | Redroot pigweed plant response rating (pigweed; [6]): 0 | Redroot pigweed plant response rating (pigweed; [1]): 7 | Plant response rating, Redroot pigweed (pigweed; [2]): 8 | Plant response rating, Redroot pigweed (pigweed; [3]): 8 | Redroot pigweed plant response rating (pigweed; [4]): 8 | Redroot pigweed plant response rating (pigweed; [8]): 0 | Plant response rating, Redroot pigweed (pigweed; [10]): 0 | Redroot pigweed plant response rating (pigweed; [5]): 3 | Rape plant response rating (rape; [6]): 0 | Rape plant response rating (rape; [7]): 0 | Rape plant response rating (rape; [1]): 0 | Plant response rating, Rape (rape; [2]): 0 | Plant response rating, Rape (rape; [3]): 0 | Rape plant response rating (rape; [4]): 3 | Rape plant response rating (rape; [8]): 0 | Rape plant response rating (rape; [5]): 0 | Soybean plant response rating (soybean; [6]): 3 | Soybean plant response rating (soybean; [1]): 0 | Plant response rating, Soybean (soybean; [2]): 0 | Plant response rating, Soybean (soybean; [3]): 0 | Soybean plant response rating (soybean; [4]): 0 | Soybean plant response rating (soybean; [8]): 2 | Plant response rating, Soybean (soybean; [10]): 4 | Soybean plant response rating (soybean; [5]): 6 | Sugarbeets plant response rating (sugar beet; [6]): 0 | Sugarbeets plant response rating (sugar beet; [1]): 0 | Sugarbeets plant response rating (0 to 10 scale) (sugar beet; [11]): 2 | Plant response rating, Sugarbeets (sugar beet; [12]): 4 | Sugarbeets plant response rating (sugar beet; [4]): 7 | Sugarbeets plant response rating (sugar beet; [8]): 0 | Plant response rating, Sugarbeets (sugar beet; [13]): 0 | Sugarbeets plant response rating (sugar beet; [5]): 0 | Velvetleaf plant response rating (velvetleaf; [6]): 0 | Velvetleaf plant response rating (velvetleaf; [1]): 0 | Velvetleaf plant response rating (0 to 10 scale) (velvetleaf; [11]): 0 | Plant response rating, Velvetleaf (velvetleaf; [12]): 0 | Velvetleaf plant response rating (velvetleaf; [4]): 3 | Velvetleaf plant response rating (velvetleaf; [8]): 0 | Plant response rating, Velvetleaf (velvetleaf; [13]): 2 | Velvetleaf plant response rating (velvetleaf; [5]): 6 | Nutsedge plant response rating (purple nutsedge; [6]): 0 | Nutsedge plant response rating (purple nutsedge; [7]): 0 | Nutsedge plant response rating (purple nutsedge; [1]): 0 | Plant response rating, Nutsedge (purple nutsedge; [2]): 0 | Plant response rating, Nutsedge (purple nutsedge; [3]): 0 | Nutsedge plant response rating (purple nutsedge; [4]): 0 | Nutsedge plant response rating (purple nutsedge; [8]): 0 | Rice plant response rating (rice; [14]): 0 | Rice plant response rating (rice; [15]): 0 | Plant response rating, Rice (rice; [16]): 2 | Rice plant response rating (rice; [17]): 3 | S. Flatsedge plant response rating (smallflower flatsedge; [14]): 0 | S. Flatsedge plant response rating (smallflower flatsedge; [15]): 0 | Plant response rating, S. Flatsedge (smallflower flatsedge; [16]): 0 | S. Flatsedge plant response rating (smallflower flatsedge; [17]): 0 | Ducksalad plant response rating (duck salad; [14]): 0 | Ducksalad plant response rating (duck salad; [15]): 0 | Ducksalad plant response rating (duck salad; [17]): 0 | Ducksalad plant response rating (duck salad; [18]): 0 | Barnyardgrass plant response rating (bamyardgrass; [9]): 0 | Barnyardgrass plant response rating (bamyardgrass; Rate 125 g/ha, Postemergence section (flood test species), scale 0 to 10, 0 no effect, 10 complete control): 0 | Barnyardgrass plant response rating (bamyardgrass; [17]): 0 | Barnyardgrass plant response rating (bamyardgrass; [18]): 0
